Experimental findings from patent US6670368B1, “Pyrimidine compounds with pharmaceutical activity” (AstraZeneca AB, priority 1999, dated 2003) are described below.

The test addresses T1, CDK4/Cyclin D1 (Homo sapiens, UniProt P11802).
T1 construct: made in house; host or cells: SF21 (Spodoptera frugiperda) insect cells, baculovirus co-infection, vector pVL1393
Kind of test: in vitro kinase assay (Scintillation Proximity Assay), incorporation of [γ-33-P]-ATP into GST-Retinoblastoma. It counts as biochemical. The following applies: CDK4/Cyclin D1 partially-purified enzyme, GST-Rb substrate, 0.2 μM ATP, room temperature 60 minutes; read-out: CDK4 inhibitory activity IC50. The procedure: The compounds were tested in an in vitro kinase assay in 96 well format using Scintillation Proximity Assay (SPA-obtained from Amersham) for measuring incorporation of [γ-33-P]-Adenosine Triphosphate into a test substrate (GST-Retinoblastoma). In each well was placed the compound to be tested (diluted in DMSO and water to correct concentrations) and in control wells either p16 as an inhibitor control or DMSO as a positive control.
Approximately 0.5 μl of CDK4/Cyclin D1 partially-purified enzyme (amount dependent on enzyme activity) diluted in 25 μl incubation buffer was added to each well then 20 μl of GST-Rb/ATP/ATP33 mixture (containing 0.5 μg GST-Rb and 0.2 μM ATP and 0.14 μCi [γ-33-P]-Adenosine Triphosphate), and the resulting mixture shaken gently, then incubated at room temperature for 60 minutes. To each well was then added 150 μL stop solution containing (0.8 mg/well of Protein A-PVT SPA bead (Amersham)), 20 pM/well of Anti-Glutathione Transferase, Rabbit IgG (obtained from Molecular Probes), 61 mM EDTA and 50 mM HEPES pH 7.5 containing 0.05% sodium azide.
The plates were sealed with Topseal-S plate sealers, left for two hours then spun at 2500 rpm, 1124×g., for 5 minutes. The plates were read on a Topcount for 30 seconds per well. […]
In general terms: SPA uses beads or plates that emit light when radiolabelled molecules are held near them.

T1 sequence (P11802 whole entry): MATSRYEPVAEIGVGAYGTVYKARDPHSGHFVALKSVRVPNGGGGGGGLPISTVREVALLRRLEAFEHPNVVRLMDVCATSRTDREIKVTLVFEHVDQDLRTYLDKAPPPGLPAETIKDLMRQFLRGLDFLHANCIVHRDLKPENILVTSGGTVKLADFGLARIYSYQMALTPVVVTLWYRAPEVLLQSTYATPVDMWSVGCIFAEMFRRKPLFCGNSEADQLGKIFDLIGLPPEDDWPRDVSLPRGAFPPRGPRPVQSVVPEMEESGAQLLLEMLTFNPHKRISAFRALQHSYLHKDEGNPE
T1 sequence (P24385 whole entry partner): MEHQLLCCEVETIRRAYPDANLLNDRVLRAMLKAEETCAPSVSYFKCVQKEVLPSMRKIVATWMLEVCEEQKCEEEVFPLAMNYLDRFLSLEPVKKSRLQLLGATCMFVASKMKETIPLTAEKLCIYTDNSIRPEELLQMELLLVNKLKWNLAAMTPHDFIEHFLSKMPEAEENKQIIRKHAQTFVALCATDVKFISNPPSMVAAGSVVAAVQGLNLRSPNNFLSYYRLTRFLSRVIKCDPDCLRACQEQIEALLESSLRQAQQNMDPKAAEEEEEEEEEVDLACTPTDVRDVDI

Broadly, the IC50 is the concentration at which inhibition is half-maximal. Take `Cc1ccc(C)c(Oc2cc(Nc3ccc(OCC(O)CN(C)C)cc3)ncn2)c1` (stereo not shown) [Example 6]: the half-inhibitory concentration (IC50) is 1200 nM.
